Read-outs that look alike come from different tables or passages of the source.
Assays:
[1] = biological target: SARS-CoV-2 main protease (M^Pro) (Severe acute respiratory syndrome coronavirus 2, UniProt P0DTD1); assay: biochemical
[2] = MTT cytotoxicity assay; type: cell-based; conditions: normal human adult dermal fibroblasts (HDFa)
Description: To determine the half-maximal cell toxicity concentration (CC50) to assess the compound toxicity, we prepared stock solutions of the test compounds in 10% DMSO with ddH2O and further diluted with DMEM to the working solutions. The cytotoxic effect of the tested compounds was evaluated in normal human adult dermal fibroblasts (HDFa) (Sigma-Aldrich, Dorset, UK) using the previously reported 3-(4,5-dimethylthiazol-2-yl)-2,5-diphenyltetrazolium bromide (MTT) method with slight adjustments. Briefly, 100 µL cells/well at a density of 3 × 10^5 cells/mL were placed in 96-well plates and then incubated in 5% CO2 for 24 h at 37 °C. After 24 h, different concentrations of the test compound(s) were added to the cells in triplicate. After another 24 h, the supernatant was removed, and cells were washed with sterile 1× PBS three times. Then, 20 µL of 5 mg/mL MTT stock solution was added to each well, and the plate was incubated at 37 °C for 4 h. The produced formazan crystals were dissolved in 200 µL of acidified isopropanol (0.04 M HCl in absolute isopropanol). After that, we measured the absorbance of formazan solutions at λmax 540 nm using a BioTek Lx800 microplate reader (BioTek Instrument Ltd., Bedfordshire, UK). […]

Row | Compound | Ki ([1]; 0–250 µM substrate, 0–50 µM inhibitor, read-out: M^Pro inhibition constant Ki) | IC50 ([1]; fluorescence, 40 µM substrate, 4 h at 20 °C, read-out: M^Pro inhibitory activity IC50) | CC50 at 24 h [2] | IC50 [1] | Ki [1] | Potency relative to α-rubromycin (times more potent) ([1]; M^Pro inhibition, versus α-rubromycin)
1 | COC(=O)c1cc2cc(CCc3cc4c(o3)C(=O)c3c(O)c(OC)cc(OC)c3C4=O)c(O)c(O)c2c(=O)o1 [α-Rubromycin, α-rubromycin] | 3.22 µM | 5.4 µM | 16.7 µM | – | – | –
2 | O=C(O)c1cc(=O)c2c(OCC(O)COc3cccc4oc(C(=O)O)cc(=O)c34)cccc2o1 [Cromoglicic acid, cromoglicic acid] | – | – | > 100 µM | 1.1 µM | 0.68 µM | 4.5 times

— publication PMC8229550 (Pharmaceuticals, 2021)
